Source: patent US20230041563A1, “N-(1,3,4-OXADIAZOL-2-YL)ARYLCARBOXAMIDES OR SALTS THEREOF, PREPARATION METHODS, HERBICIDAL COMPOSITIONS AND USES THEREOF” (priority 2018, published 2023)

Key:
Digitaria sanguinalis = experiment: Weeding effect in post-emergence stage (greenhouse pot spray); type: in vivo
Outline: (§1)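 Greenhouse post-emergence test: compounds were sprayed at 500, 250, 125, 60 and 15 g a.i./ha onto plants 2 weeks after sowing, and fresh weight control rates were averaged from three replicates 3 weeks later.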

Setaria viridis = experiment: as above; type: in vivo; details: Table 3, dose 60 g a.i./ha
Outline: as §1

Echinochloa crusgalli = experiment: as above; type: in vivo
Outline: as §1

Abutilon theophrasti = experiment: as above; type: in vivo
Outline: as §1

Scirpus juncoides = experiment: Transplanted rice safety evaluation and weed control effect evaluation in rice field; type: in vivo; details: Table 7, dose 125 g a.i./ha, 14 days after treatment
Outline: (§2)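 Paddy-soil pots, seeds sown and flooded (0.5-1 cm, then 3-4 cm water); Sagittaria grown from tubers. WP or SC dilutions dripped on at 0.5-leaf stage (Sagittaria at primary leaf). Visual 0-5 scoring of weeds at 14 days, rice at 21 days.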

Echinochloa crusgali = experiment: as above; type: in vivo; details: Table 7, dose 125 g a.i./ha, 14 days after treatment
Outline: as §2

Monochoria vaginalis = experiment: as above; type: in vivo; details: Table 7, dose 125 g a.i./ha, 14 days after treatment
Outline: as §2

Rice = experiment: as above; type: in vivo, rice (japonica rice/Indica rice); details: Table 7, dose 125 g a.i./ha, 21 days after treatment
Outline: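 Japonica and Indica rice at 3-leaf stage transplanted into flooded paddy soil (3-4 cm water). Compound applied 5 days after transplanting. Weeds scored visually on 0-5 scale at 14 days; rice injury at 21 days.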

Stellaria media = experiment: Weeding effect in post-emergence stage (greenhouse pot spray); type: in vivo
Outline: as §1

Amaranthus retroflexus = experiment: as above; type: in vivo
Outline: as §1

## CCSc1c(C(F)(F)F)ccc(C(=O)Nc2nnc(C)o2)c1F [Compound 1-4]
Digitaria sanguinalis; Table 2, dose 125 g a.i./ha
  Digitaria sanguinalis (activity level): 5 (Level 5: growth control rate is above 85%)
Digitaria sanguinalis; Table 2, dose 250 g a.i./ha
  Digitaria sanguinalis (activity level): 5 (Level 5: growth control rate is above 85%)
Digitaria sanguinalis; Table 3, dose 60 g a.i./ha
  Digitaria sanguinahs (activity level): 5 (Level 5: growth control rate is above 85%)
Setaria viridis
  Setaria viridis (activity level): 5 (Level 5: growth control rate is above 85%)
Echinochloa crusgalli; Table 2, dose 125 g a.i./ha
  Echinochloa crusgah (activity level): 5 (Level 5: growth control rate is above 85%)
Echinochloa crusgalli; Table 2, dose 250 g a.i./ha
  Echinochloa crusgah (activity level): 5 (Level 5: growth control rate is above 85%)
Abutilon theophrasti; Table 2, dose 125 g a.i./ha
  Abutilion theophrasti (activity level): 5 (Level 5: growth control rate is above 85%)
Abutilon theophrasti; Table 2, dose 250 g a.i./ha
  Abutilion theophrasti (activity level): 5 (Level 5: growth control rate is above 85%)
Abutilon theophrasti; Table 3, dose 60 g a.i./ha
  Abutilon theophrasti (activity level): 5 (Level 5: growth control rate is above 85%)
Scirpus juncoides
  Scirpus juncoides (activity level): 5 (Level 5: growth control rate is above 85%)
Echinochloa crusgali
  Echinochloa crusgali (activity level): 5 (Level 5: growth control rate is above 85%)
Monochoria vaginalis
  Monochoria vaginalis (activity level): 5 (Level 5: growth control rate is above 85%)
Rice
  Rice (safety level): 0 (Level 0: growth control rate is less than 5%)
Stellaria media; Table 2, dose 125 g a.i./ha
  Stellaria media (activity level): 5 (Level 5: growth control rate is above 85%)
Stellaria media; Table 2, dose 250 g a.i./ha
  Stellaria media (activity level): 5 (Level 5: growth control rate is above 85%)
Amaranthus retroflexus; Table 2, dose 125 g a.i./ha
  Amaranthus retroflexus (activity level): 5 (Level 5: growth control rate is above 85%)
Amaranthus retroflexus; Table 2, dose 250 g a.i./ha
  Amaranthus retroflexus (activity level): 5 (Level 5: growth control rate is above 85%)
